Several values for one entry are separate records, joined by “and”; a condition that tells them apart may be missing. Identical values can stand only once. Like-named read-outs stand apart in the source and are kept apart here.
Tests used:
[1] = tested on: HDMB03 (HDMBO3) group 3 medulloblastoma cells; test: CellTiter-Glo dose-response growth assay; format: cell-based; details: Homo sapiens, HD-MB03; HDMBO3 G3MB cell growth; read-out: IC50 (nM) HDMBO3
Experimental: CellTiter-Glo assay was performed as per the manufacturer’s instructions, at the noted timepoint after compound treatment or plating. For Kelly, TE617T, RhJT, NCIH2122, NCIH650 and 143B, 500 cells were plated in normal growth media per well in a 384-well plate (Corning). HDMB03 and MB002 cells were plated in growth media at 500 cells/well in a 384-well plate. […] Cells were incubated for the noted timepoints prior to performing CellTiter-Glo assay as per the manufacturer’s instructions, and reading plates on an Envision 2104 microplate reader.

BRD4-BD1 (BRD4-1) = molecular target: T1, BRD4-BD1 (BRD4-1) (Homo sapiens, UniProt O60885); test: Differential scanning fluorimetry (DSF) thermal shift; format: binding; details: DSF
T1 construct: BRD4-BD1 (residues 44-168); 6xHis (cleaved yes); host or cells: E. coli BL21 (DE3) RIL
Experimental: (§1) At OD600 of 0.6, the culture was cooled down to 18 °C and induced with 0.1 mM IPTG. After 18 h growth, the culture was harvested by centrifugation at 6000 × g for 25 min and stored at -80 °C. Harvested cell pellets were re-suspended in 50 mM Na/K phosphate buffer (pH 7.4) containing 100 mM NaCl, 40 mM imidazole, 0.01% w/v lysozyme and 0.01% v/v Triton X-100 at 4 °C for 1 h, subjected to sonication and the lysate was clarified by centrifugation (30,000 × g for 45 min at 4 °C). Proteins were purified by FPLC at 4 °C using columns and chromatography materials from GE Healthcare. […] Proteins were purified to homogeneity by size exclusion chromatography using Superdex 75 equilibrated with elution buffer (50 mM HEPES pH 7.5, 100 mM NaCl, 2 mM DTT). All BRDs eluted as monomeric protein and were of crystallization grade quality (>95% purity as judged by SDS-PAGE). Pool fractions were combined, concentrated to 10–12 mg/ml, and aliquots were flash-frozen in liquid N2 and stored at −80 °C.
(§2) DSF experiments were performed with an Applied Biosystem StepOnePlus real-time PCR system (Thermo Fisher Scientific) using 96-well format plates, assayed in quadruplicate. For thermal shift determination, 5 μM protein was mixed with 100 μM compound in 50 mM HEPES, pH 7.5, 150 mM NaCl, 2 mM DTT, 2% DMSO, 5X SYPRO Orange (Thermo Fisher Scientific) in 20 μL reaction volumes. Reaction mixtures were heated from 25 to 95 °C at 1 °C/min with fluorescence readings every 0.5 °C at 610 nm. The observed thermal shift (ΔTm) was recorded as the difference between the Tm of sample and DMSO reference wells.

EP300 bromodomain = molecular target: T2, EP300 bromodomain (Homo sapiens, UniProt Q09472); test: as above; format: binding; details: DSF
T2 construct: 6xHis (cleaved yes); host or cells: E. coli BL21 (DE3) RIL
T2 sequence (Q09472 1048-1161): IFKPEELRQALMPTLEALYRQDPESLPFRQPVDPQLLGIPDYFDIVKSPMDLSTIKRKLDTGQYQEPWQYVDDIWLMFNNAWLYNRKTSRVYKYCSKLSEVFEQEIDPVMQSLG
Experimental: as §1, §2

CBP bromodomain [2] = molecular target: T3, CBP bromodomain (Homo sapiens, UniProt Q92793); test: as above; format: binding
T3 construct: CBP (residues 1081-1197); 6xHis (cleaved yes); host or cells: E. coli BL21 (DE3) RIL
T3 sequence (Q92793 1081-1197): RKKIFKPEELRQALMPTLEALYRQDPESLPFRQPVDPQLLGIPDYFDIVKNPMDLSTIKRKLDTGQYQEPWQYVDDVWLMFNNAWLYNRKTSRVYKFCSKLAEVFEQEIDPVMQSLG
Experimental: as §1, with “After” for “At OD600 of 0.6, the culture was cooled down to 18 °C and induced with 0.1 mM IPTG. After”, “All BRDs eluted as monomeric protein and were of crystallization grade quality (>95% purity as judged by SDS-PAGE).” left out
(§3) DSF experiments were performed with an Applied Biosystem StepOnePlus real-time PCR system (Thermo Fisher Scientific) using 96-well format plates, assayed in quadruplicate. For thermal shift determination, 5 μM protein was mixed with 100 μM compound in 50 mM HEPES, pH 7.5, 150 mM NaCl, 2 mM DTT, 2% DMSO, 5X SYPRO Orange (Thermo Fisher Scientific) in 20 μL reaction volumes.

CBP bromodomain [3] = test: as above; format: binding; details: ΔTm (CBP)/ΔTm(BRD4)
Experimental: as §1, with “After” for “At OD600 of 0.6, the culture was cooled down to 18 °C and induced with 0.1 mM IPTG. After”, “All BRDs eluted as monomeric protein and were of crystallization grade quality (>95% purity as judged by SDS-PAGE).” left out
as §3

[4] = molecular target: GFP-tagged CBP bromodomain (Homo sapiens, UniProt Q92793); test: Microscale thermophoresis (MST); format: binding
Chain of GFP-tagged CBP bromodomain (Q92793 1085-1192 limits assumed): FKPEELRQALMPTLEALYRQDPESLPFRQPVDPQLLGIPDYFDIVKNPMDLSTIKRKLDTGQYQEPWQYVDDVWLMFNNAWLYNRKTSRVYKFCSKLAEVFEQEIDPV
Experimental: MST experiments were performed in a Monolith NT.115 Pico instrument (NanoTemper Technologies) following published procedures. […] MST traces were recorded using standard parameters: 5 s MST power off, 30 s MST power on and 5 s MST power off. Measurements were taken at -1-0 s (cold region) and 10 s (hot region) and data were analyzed using the NTAnalysis software.

[5] = 5 μM protein, 100 μM compound, three independent experiments, average ± SD

SMILES: COC1CCC(n2c(C3CCCC(=O)N3c3cc(C(F)(F)F)cc(C(F)(F)F)c3)nc3cc(-c4c(C)noc4C)ccc32)CC1 (stereo not drawn) [Compound 4]
- IC50 [1]: 271 ± 62 nM
- ∆Tm (°C) BRD4-1 (BRD4-BD1 (BRD4-1); [5]): 2.1 ± 0.96 °C
- ΔTm (°C) BRD4-BD1 (BRD4-BD1 (BRD4-1); Figure 3A, BRD4-BD1): 2.1 °C
- ∆Tm (°C) EP300 (EP300 bromodomain; [5]): 9.2 ± 1.5 °C
- ΔTm (°C) EP300 (EP300 bromodomain; Figure 3B, EP300): 9.2 °C
- ∆Tm (°C) CBP (CBP bromodomain [2]; DSF, 5 μM protein, 100 μM compound, three independent experiments, average ± SD): 9.9 ± 1.02 °C
- ΔTm (°C) CBP (CBP bromodomain [2]; Figure 3A, DSF, CBP bromodomain): 9.9 °C
- ΔTm (°C) CBP (CBP bromodomain [2]; Figure 3B, DSF, CBP): 9.9 °C
- DSF ΔTm (°C) (CBP bromodomain [2]; Figure 3C, DSF (values equal CBP column)): 9.9 °C
- Ratio CBP/BRD4 of ∆Tm (CBP bromodomain [3]): 4.7
- Kd ([4]; Figure 3C, MST, read-out: MST Kd): 116 nM
- Response (Dose Response Curve) ([4]; MST raw response, Dose 1.52588e-10, single replicate run, listed as iCBP-4): 892.093 and 891.258 and 891.615
- Response (Dose Response Curve (Outliers)) ([4]; MST raw response, Dose 3.05176e-10, point marked as outlier and left out of the fit): 895.82
- Response (Dose Response Curve) ([4]; MST raw response, Dose 3.05176e-10, single replicate run, listed as iCBP-4): 892.272 and 892.058
- Response (Dose Response Curve) ([4]; MST raw response, Dose 6.10352e-10, single replicate run, listed as iCBP-4): 892.269 and 892.744 and 892.22
- Response (Dose Response Curve) ([4]; MST raw response, Dose 1.2207e-9, single replicate run, listed as iCBP-4): 892.399 and 891.675 and 892.288
- Response (Dose Response Curve) ([4]; MST raw response, Dose 2.44141e-9, single replicate run, listed as iCBP-4): 891.725 and 891.585 and 891.994
- Response (Dose Response Curve) ([4]; MST raw response, Dose 4.88281e-9, single replicate run, listed as iCBP-4): 891.567 and 892.575 and 891.165
- Response (Dose Response Curve) ([4]; MST raw response, Dose 9.76563e-9, single replicate run, listed as iCBP-4): 891.493 and 891.567 and 891.238
- Response (Dose Response Curve) ([4]; MST raw response, Dose 1.95313e-8, single replicate run, listed as iCBP-4): 891.688 and 891.424 and 891.76
- Response (Dose Response Curve) ([4]; MST raw response, Dose 3.90625e-8, single replicate run, listed as iCBP-4): 892.161 and 891.262 and 889.541
- Response (Dose Response Curve) ([4]; MST raw response, Dose 7.8125e-8, single replicate run, listed as iCBP-4): 890.263 and 890.555 and 890.434
- Response (Dose Response Curve) ([4]; MST raw response, Dose 1.5625e-7, single replicate run, listed as iCBP-4): 890.147 and 890.553 and 889.395
- Response (Dose Response Curve) ([4]; MST raw response, Dose 3.125e-7, single replicate run, listed as iCBP-4): 888.926 and 888.984 and 889.107
- Response (Dose Response Curve) ([4]; MST raw response, Dose 6.25e-7, single replicate run, listed as iCBP-4): 888.767 and 888.447 and 889.182
- Response (Dose Response Curve) ([4]; MST raw response, Dose 1.25e-6, single replicate run, listed as iCBP-4): 887.998 and 889.672 and 887.288
- Response (Dose Response Curve) ([4]; MST raw response, Dose 2.5e-6, single replicate run, listed as iCBP-4): 887.993 and 886.376 and 888.472
- Response (Dose Response Curve) ([4]; MST raw response, Dose 5e-6, single replicate run, listed as iCBP-4): 887.809 and 888.569 and 888.97
- Kd ([4]; MST, single replicate run, target clGFP-CBPBRD, TargetConcentration 5e-8, MST-Power Medium, unit inferred, read-out: Kd (Fit Results, Fit Model: Kd)): 142 nM and 167 nM and 39.1 nM
- Bound (Fit Results) ([4]; fitted MST response of bound state, single replicate run, target clGFP-CBPBRD 5e-8, listed as iCBP-4): 887.684 and 887.776 and 888.434
- Unbound (Fit Results) ([4]; fitted MST response of unbound state, single replicate run, target clGFP-CBPBRD 5e-8, listed as iCBP-4): 892.098 and 891.946 and 891.879
- loss of binding affinity (CBP) ([4]; relative to CCS1477): ~ 40 fold
- Kd ([4]; three independent MST experiments, average ± SD, read-out: Kd (nM) CBP): 116 ± 68 nM

— PMC11045757, “Group 3 medulloblastoma transcriptional networks collapse under domain specific EP300/CBP inhibition” (Nature Communications, 2024)
